# Reference: US9464058B2 (Hoffmann-La Roche Inc., priority 2012, dated 2016)
# Tests used:
# [1] = target: T1, human CYP11B2 (Homo sapiens, UniProt P19099); test: G-402 cellular enzyme assay, human CYP11B2 (aldosterone release, HTRF); assay type: cell-based; details: G-402 cells expressing human CYP11B2; 1 μM Deoxycorticosterone; 16 h
# T1 construct: expressed in transfected cells
# T1 sequence (P19099 25-503): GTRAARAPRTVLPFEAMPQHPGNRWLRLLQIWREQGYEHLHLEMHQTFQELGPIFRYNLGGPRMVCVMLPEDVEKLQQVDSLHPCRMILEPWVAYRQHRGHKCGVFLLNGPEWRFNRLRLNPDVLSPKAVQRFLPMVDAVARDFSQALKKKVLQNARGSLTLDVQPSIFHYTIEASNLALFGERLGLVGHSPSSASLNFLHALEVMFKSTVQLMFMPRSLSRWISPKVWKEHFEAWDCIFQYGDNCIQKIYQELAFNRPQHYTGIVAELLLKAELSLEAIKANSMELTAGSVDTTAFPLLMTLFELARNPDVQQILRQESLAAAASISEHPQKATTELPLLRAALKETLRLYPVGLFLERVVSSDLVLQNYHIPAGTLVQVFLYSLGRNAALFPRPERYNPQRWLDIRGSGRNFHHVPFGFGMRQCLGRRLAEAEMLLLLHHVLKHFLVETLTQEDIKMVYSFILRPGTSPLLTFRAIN
# Excerpt: (§1) Herein we identified the use of the G-402 cell line as a host cell to ectopically express (transiently or stably) enzymes of the CYP11 family. Specifically we developed stable G-402 cells expressing ectopically human CYP11B1, human CYP11B2, human CYP11A1, cynomolgus CYP11B1 or cynomolgus CYP11B2 enzyme activity. Importantly, the identified cell line G-402 expresses co-factors (adrenodoxin and adrenodoxin reductase) important for the activity of the CYP11 family, and no relevant enzyme activity of the CYP11 family (in comparison to H295R cells) was detected in these cells. Therefore the G-402 cell line is uniquely suited as a host cell for the ectopic expression of enzymes from the CYP11 family.
# (§2) G-402 cells can be obtained from ATCC(CRL-1440) and were originally derived from a renal leiomyoblastoma.
# (§3) The expression plasmids contains the ORF for either human/cyno CYP11B1 or CYP11B2 under the control of a suitable promoter (CMV-promoter) and a suitable resistance marker (neomycin). Using standard techniques the expression plasmid is transfected into G-402 cells and these cells are then selected for expressing the given resistance markers. Individual cell-clones are then selected and assessed for displaying the desired enzymatic activity using 11-Deoxycorticosterone (Cyp11B2) or 11-Deoxycortisol (Cyp11B1) as a substrate.
# (§4) G-402 cells expressing CYP11 constructs were established as described above and maintained in McCoy's 5a Medium Modified, ATCC Catalog No. 30-2007 containing 10% FCS and 400 μg/ml G418 (Geneticin) at 37° C. under an atmosphere of 5% CO2/95% air. Cellular enzyme assays were performed in DMEM/F12 medium containing 2.5% charcoal treated FCS and appropriate concentration of substrate (0.3-10 uM 11-Deoxycorticosterone, 11-Deoxycortisol or Corticosterone). For assaying enzymatic activity, cells were plated onto 96 well plates and incubated for 16 h. An aliquot of the supernatant is then transferred and analyzed for the concentration of the expected product (Aldosterone for CYP11B2; Cortisol for CYP11B1). The concentrations of these steroids can be determined using HTRF assays from CisBio analyzing either Aldosterone or Cortisol.
# (§5) Inhibition of the release of produced steroids can be used as a measure of the respective enzyme inhibition by test compounds added during the cellular enzyme assay. The dose dependent inhibition of enzymatic activity by a compound is calculated by means of plotting added inhibitor concentrations (x-axes) vs. measured steroid/product level (y-axes). The inhibition is then calculated by fitting the following 4-parameter sigmoidal function (Morgan-Mercer-Flodin (MMF) model) to the raw data points using the least squares method:
# (§6) [formula] wherein A is the maximum y value, B is the EC50 factor determined using XLFit, C is the minimum y value and D is the slope value.
# (§7) EC50 values for compounds claimed herein were tested with the G402-based assay system described. Cyp11B2 enzyme activity was tested in presence of 1 μM Deoxycorticosterone and variable amounts of inhibitors; Cyp11B1 enzyme activity was tested in presence of 1 μM Deoxycortisol and variable amounts of inhibitors.
# [2] = target: T2, human CYP11B1 (Homo sapiens, UniProt P15538); test: G-402 cellular enzyme assay, human CYP11B1 (cortisol release, HTRF); assay type: cell-based; details: G-402 cells expressing human CYP11B1; 1 μM Deoxycortisol; 16 h
# T2 construct: expressed in transfected cells
# T2 sequence (P15538 25-503): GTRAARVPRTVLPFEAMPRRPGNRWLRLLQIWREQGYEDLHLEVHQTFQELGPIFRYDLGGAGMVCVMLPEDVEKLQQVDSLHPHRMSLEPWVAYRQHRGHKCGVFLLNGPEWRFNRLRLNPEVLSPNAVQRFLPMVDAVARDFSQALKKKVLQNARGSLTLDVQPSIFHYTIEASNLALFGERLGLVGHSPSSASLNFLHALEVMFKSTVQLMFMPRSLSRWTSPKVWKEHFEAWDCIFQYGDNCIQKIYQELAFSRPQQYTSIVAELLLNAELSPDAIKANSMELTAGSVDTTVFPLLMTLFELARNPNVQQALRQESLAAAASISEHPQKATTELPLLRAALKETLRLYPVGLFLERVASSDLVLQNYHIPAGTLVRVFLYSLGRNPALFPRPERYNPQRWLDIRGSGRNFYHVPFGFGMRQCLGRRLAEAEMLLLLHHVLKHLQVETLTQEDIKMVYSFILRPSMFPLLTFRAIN
# Excerpt: as §1, §2, §3, §4, §5, §6, §7
SMILES,EC50 [1] [nM],EC50 [2] [nM]
"N#Cc1cc(C(=O)c2cncn2C2CC2)ccc1F [Example 66, 5-(3-Cyclopropyl-3H-imidazole-4-carbonyl)-2-fluoro-benzonitrile]",447,2210
"CCSc1ccc(C(=O)c2cncn2C2CC2)cc1 [Example 70, (3-Cyclopropyl-3H-imidazol-4-yl)-(4-ethylsulfanyl-phenyl)-methanone]",22.8,364
"CCn1cncc1C(=O)c1ccc(SC(F)(F)F)cc1 [Example 74, (3-Ethyl-3H-imidazol-4-yl)-(4-trifluoromethylsulfanyl-phenyl)-methanone]",235,1320
"N#Cc1ccc(-n2cncc2C(=O)c2ccc(Cl)cc2)cc1Cl [Example 77, 2-Chloro-4-[5-(4-chloro-benzoyl)-imidazol-1-yl]-benzonitrile]",1.9,9.8
"N#Cc1ccc(-n2cncc2C(=O)c2ccc(Cl)c(Cl)c2)cc1Cl [Example 78, 2-Chloro-4-[5-(3,4-dichloro-benzoyl)-imidazol-1-yl]-benzonitrile]",3.7,145
"COc1cc(C(=O)c2cncn2C)ccc1SC(F)(F)F [Example 79, (3-Methoxy-4-trifluoromethylsulfanyl-phenyl)-(3-methyl-3H-imidazol-4-yl)-methanone]",14.8,1580
"CCn1cncc1C(=O)c1ccc(SC(F)(F)F)c(OC)c1 [Example 80, (3-Ethyl-3H-imidazol-4-yl)-(3-methoxy-4-trifluoromethylsulfanyl-phenyl)-methanone]",12.9,634
"CCC(CC)n1cncc1C(=O)c1cccc(C#N)c1 [Example 83, 3-[3-(1-Ethyl-propyl)-3H-imidazole-4-carbonyl]-benzonitrile]",5.7,57

# Results, then the compound that gave them:
EC50 [1] [nM],EC50 [2] [nM],SMILES
21.5,88.2,"CCC(C)n1cncc1C(=O)c1ccc(F)c(C#N)c1 (stereo not drawn) [Example 65, 5-(3-sec-Butyl-3H-imidazole-4-carbonyl)-2-fluoro-benzonitrile]"
291,9910,"CCn1cncc1C(=O)c1ccc(N(C)C(C)=O)cc1 [Example 67, N-[4-(3-Ethyl-3H-imidazole-4-carbonyl)-phenyl]-N-methyl-acetamide]"
18.6,488,"Cn1cncc1C(=O)c1ccc(Br)cc1 [Example 68, (4-Bromo-phenyl)-(3-methyl-3H-imidazol-4-yl)-methanone]"
84.4,329,"CCSc1ccc(C(=O)c2cncn2CC)cc1 [Example 69, (3-Ethyl-3H-imidazol-4-yl)-(4-ethylsulfanyl-phenyl)-methanone]"
5.3,253,"CCSc1ccc(C(=O)c2cncn2C(C)C)cc1 [Example 71, (4-Ethylsulfanyl-phenyl)-(3-isopropyl-3H-imidazol-4-yl)-methanone]"
5.2,10.1,"CC(C)n1cncc1C(=O)c1ccc(Br)cc1 [Example 72, (4-Bromo-phenyl)-(3-isopropyl-3H-imidazol-4-yl)-methanone]"
89.9,760,"CC(C)n1cncc1C(=O)c1ccc(SC(F)(F)F)cc1 [Example 75, (3-Isopropyl-3H-imidazol-4-yl)-(4-trifluoromethylsulfanyl-phenyl)-methanone]"
42.7,264,"CCC(CC)n1cncc1C(=O)c1ccc(SC(F)(F)F)cc1 [Example 76, [3-(1-Ethyl-propyl)-3H-imidazol-4-yl]-(4-trifluoromethylsulfanyl-phenyl)-methanone]"
15.9,199,"COc1cc(C(=O)c2cncn2C(C)C)ccc1SC(F)(F)F [Example 81, (3-Isopropyl-3H-imidazol-4-yl)-(3-methoxy-4-trifluoromethylsulfanyl-phenyl)-methanone]"
0.2,3.3,"CCC(CC)n1cncc1C(=O)c1ccc(C#N)cc1 [Example 82, 4-[3-(1-Ethyl-propyl)-3H-imidazole-4-carbonyl]-benzonitrile]"
